Assay results taken from patent US5032577A, “Peptidylaminodiols” (Abbott Laboratories, priority 1987, dated 1991).
Structures can show the parent of a compound that is named as a salt.

Target: T1, human renal renin (Homo sapiens, UniProt P00797)
T1 construct: human renal renin, free from acid proteolytic activity; from tissue
T1 sequence (P00797 67-406): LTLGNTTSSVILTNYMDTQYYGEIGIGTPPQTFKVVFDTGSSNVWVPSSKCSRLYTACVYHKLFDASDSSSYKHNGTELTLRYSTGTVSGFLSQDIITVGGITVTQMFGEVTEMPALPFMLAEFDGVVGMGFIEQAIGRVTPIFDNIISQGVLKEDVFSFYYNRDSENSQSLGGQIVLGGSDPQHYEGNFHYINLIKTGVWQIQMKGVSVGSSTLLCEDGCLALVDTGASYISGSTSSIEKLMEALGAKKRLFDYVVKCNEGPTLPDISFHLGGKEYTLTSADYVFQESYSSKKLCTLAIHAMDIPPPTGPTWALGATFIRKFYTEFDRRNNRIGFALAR
Assay: Inhibition of human renal renin in vitro; angiotensin I formed measured by radioimmunoassay
Assay type: biochemical
Conditions: not given

| SMILES | IC50 |
| --- | --- |
| CC(C)C[C@H](O)[C@H](O)[C@H](CC1CCCCC1)NC(=O)[C@H](Cc1c[nH]cn1)NC(=O)[C@H](Cc1ccccc1)NC(=O)[C@@H](C)NC(=O)OCc1ccccc1 [Example 69, Cbz-D-Ala-Phe-His Amide of 2(S)-Amino-l-cyclohexyl-3(R), 4(S)-dihydroxy-6-methylheptane] | 810 pM |
| CC(C)C[C@H](O)[C@H](O)[C@H](CC1CCCCC1)NC(=O)[C@H](Cc1c[nH]cn1)NC(=O)[C@H](Cc1ccccc1)NC(=O)[C@@H](C)N [Example 70, H-D-Ala-Phe-His Amide of 2(S)-Amino-l-cyclohexyl-3(R), 4(S)-dihydroxy-6-methylheptane Diacetic Acid Salt] | 2500 pM |
| CC(C)C[C@H](O)[C@H](O)[C@H](CC1CCCCC1)NC(=O)[C@H](Cc1c[nH]cn1)NC(=O)[C@H](Cc1ccccc1)NC(=O)CC(C)(C)NC(=O)OCc1ccccc1 [Example 74, Cbz-[(β,β-di-Me)-β-Ala]-Phe-His Amide of 2(S)-Amino-1-cyclohexyl-3(R),4(S)-dihydroxy-6-methylheptane] | 700 pM |
| CC(C)C[C@H](O)[C@H](O)[C@H](CC1CCCCC1)NC(=O)[C@H](Cc1c[nH]cn1)NC(=O)[C@H](Cc1ccccc1)NC(=O)CC(C)(C)N [Example 75, H-[(β,β-di-Me)-β-Ala]-Phe-His Amide of 2(S)-Amino-1-cyclohexyl-3(R),4(S)-dihydroxy-6-methylheptane Diacetic Acid Salt] | 400 pM |
| CC(C)C[C@H](O)[C@H](O)[C@H](CC1CCCCC1)NC(=O)[C@H](Cc1c[nH]cn1)NC(=O)[C@H](Cc1ccccc1)NC(=O)[C@@H]1CCCN1C(=O)OCc1ccccc1 [Example 76, Cbz-Pro-Phe-His Amide of 2(S)-Amino-l-cyclohexyl-3(R), 4(S)-dihydroxy-6-methyl- heptane] | 500 pM |
| CC(C)C[C@H](O)[C@H](O)[C@H](CC1CCCCC1)NC(=O)[C@H](Cc1c[nH]cn1)NC(=O)[C@H](Cc1ccccc1)NC(=O)[C@@H]1CCCN1 [Example 77, H-Pro-Phe-His Amide of 2(S)-Amino-l-cyclohexyl-3(R), 4(S)-dihydroxy-6-methylheptane Acetic Acid Salt] | 980 pM |
| CC(C)C[C@H](O)[C@H](O)[C@H](CC1CCCCC1)NC(=O)[C@H](Cc1c[nH]cn1)NC(=O)[C@H](Cc1ccccc1)NC(=O)OCc1ccccc1 [Example 83, Cbz-Phe-His Amide of 2(S)-Amino-l-cyclohexyl-3(R), 4(S)-dihydroxy-6-methylheptane] | 600 pM |
| CC(C)C[C@H](O)[C@H](O)[C@H](CC1CCCCC1)NC(=O)[C@H](Cc1c[nH]cn1)NC(=O)[C@@H](N)Cc1ccccc1 [Example 84, Phe-His Amide of 2(S)-Amino-l-cyclohexyl-3(R),4(S)-dihydroxy-6-methylheptane] | 10000 pM |
| CC(C)C[C@H](O)[C@H](O)[C@H](CC1CCCCC1)NC(=O)[C@H](Cc1c[nH]cn1)NC(=O)[C@H](Cc1ccccc1)NC(=O)C(C)(C)N [Example 85, alpha-Aminoisobutyryl-Phe-His Amide of 2(S)-Amino-1-cyclohexyl-3(R),4(S)-dihydroxy-6-methylheptane] | 400 pM |
| CC(C)C[C@H](O)[C@H](O)[C@H](CC1CCCCC1)NC(=O)[C@H](Cc1c[nH]cn1)NC(=O)[C@H](Cc1ccccc1)NC(=O)c1cnccn1 [Example 87, (Pyrazin-2-yl-carbonyl)-Phe-His Amide of 2(S)-Amino-1-cyclohexyl-3(R),4(S)-dihydroxy-6-methylheptane] | 550 pM |
| CC(C)C[C@H](NC(=O)[C@H](Cc1ccccc1)NC(=O)Cc1c[nH]cn1)C(=O)N[C@@H](CC1CCCCC1)[C@@H](O)[C@@H](O)CC(C)C [Example 88, (Imidazol-4-yl-acetyl)-Phe-Leu Amide of 2(S)-Amino-1-cyclohexyl-3(R),4(S)-dihydroxy-6-methylheptane] | 600 pM |
| CC(C)C[C@H](O)[C@H](O)[C@H](CC1CCCCC1)NC(=O)[C@H](Cc1c[nH]cn1)NC(=O)[C@H](Cc1ccccc1)NC(=O)c1ccc[nH]1 [Example 89, (Pyrrol-2-yl-carbonyl)-Phe-His Amide of 2(S)-Amino-1-cyclohexyl-3(R),4(S)-dihydroxy-6-methylheptane] | 1000 pM |
| C=CCOC(=O)N[C@@H](Cc1ccccc1)C(=O)N[C@@H](CC(C)C)C(=O)N[C@@H](CC1CCCCC1)[C@@H](O)[C@@H](O)CC(C)C [Example 90, Allyloxycarbonyl-Phe-Leu Amide of 2(S)-Amino-l-cyclohexyl-3(R),4(S)-dihydroxy-6-methylheptaine] | 400 pM |
| CC(C)C[C@H](NC(=O)[C@H](Cc1ccccc1)NC(=O)OCCCOC(=O)CNC(=O)OCc1ccccc1)C(=O)N[C@@H](CC1CCCCC1)[C@@H](O)[C@@H](O)CC(C)C [Example 92, Cbz-Gly Ester of the Resultant Compound of Example 91 (at 3-Hydroxypropyloxy Group)] | 500 pM |
| CC(C)C[C@H](NC(=O)[C@H](Cc1ccccc1)NC(=O)OCCCOC(=O)CN)C(=O)N[C@@H](CC1CCCCC1)[C@@H](O)[C@@H](O)CC(C)C [Example 93, H-Gly-Ester of the Resultant Compound of Example 91 (at 3-Hydroxypropyloxy Group)] | 550 pM |
| CC(C)C[C@H](NC(=O)[C@H](Cc1ccccc1)NC(=O)OCC(O)CO)C(=O)N[C@@H](CC1CCCCC1)[C@@H](O)[C@@H](O)CC(C)C (stereo partly drawn) [Example 97, 2(R,S),3-Dihydroxypropyloxycarbonyl-Phe-Leu Amide of 2(S) -Amino-1-cyclohexyl-3(R),4(S)-dihydroxy-6-methylheptane] | 300 pM |
| CC(C)C[C@H](O)[C@H](O)[C@H](CC1CCCCC1)NC(=O)[C@H](Cc1c[nH]cn1)NC(=O)[C@H](Cc1ccccc1)NC(=O)CO [Example 103, Hydroxyacetyl-Phe-His Amide of 2(S)-Amino-l-cyclohexyl-3(R),4(S)-dihydroxy-6-methylheptane] | 1000 pM |
| CC(C)C[C@H](O)[C@H](O)[C@H](CC1CCCCC1)NC(=O)[C@H](Cc1c[nH]cn1)NC(=O)[C@H](CCc1ccccc1)NC(=O)C(C)C [Example 108, Isobutyryl-Homo-Phe-His Amide of 2(S)-Amino-l-cyclohexyl-3(R),4(S)-dihydroxy-6-methylheptane] | 550 pM |
| CC(C)C[C@H](O)[C@H](O)[C@H](CC1CCCCC1)NC(=O)[C@H](Cc1c[nH]cn1)NC(=O)[C@H](Cc1ccccc1)OC(=O)N1CCOCC1 [Example 111, 2(S)-[(4-Morpholinyl)carbonyl]oxy-3-phenylpropionyl-His Amide of 2(S)-Amino-l-cyclohexyl-3(R),4(S)-dihydroxy-6-methylheptane] | 500 pM |
| CC(C)C[C@H](O)[C@H](O)[C@H](CC1CCCCC1)NC(=O)[C@H](Cc1cnc[nH]1)NC(=O)[C@H](Cc1ccccc1)NC(=O)N1CCOCC1 [Example 118, [(4-Morpholinyl)carbonyl]-phe-His Amide of 2(S)-Amino-1-cyclohexyl-3(R),4(S)-dihydroxy-6-methylheptane] | 500 pM |
| COc1ccc(C[C@H](NC(=O)CCCCCN)C(=O)N[C@@H](Cc2c[nH]cn2)C(=O)N[C@@H](CC2CCCCC2)[C@@H](O)[C@@H](O)CC(C)C)cc1 [Example 173, 6-Aminohexanoyl-(4-methoxy)Phe-His Amide of (2S, 3R, 4S)-2-Amino-1-cyclohexyl-3,4-dihydroxy-6-methylheptane Diacetate Salt] | 900 pM |
| CC(C)C[C@H](O)[C@H](O)[C@H](CC1CCCCC1)NC(=O)[C@H](Cc1c[nH]cn1)NC(=O)C(NC(=O)N1CCOCC1)C(C)(C)c1ccccc1 (stereo partly drawn) [Example 178, 2(R,S)-[[(4-Morpholinyl)carbonyl]amino]-3,3-dimethyl-3-phenylpropionyl-His Amide of 2(S)-Amino-l-cyclohexyl-3(R),4(S)-dihydroxy-6-methylheptane] | 2000 pM |
| COc1ccc(C[C@H](NC(=O)C2CCNCC2)C(=O)N[C@@H](Cc2c[nH]cn2)C(=O)N[C@@H](CC2CCCCC2)[C@@H](O)[C@@H](O)CC(C)C)cc1 [Example 179, H-Isonipecotyl-(4-OCH3)Phe-His Amide of 2(S)-Amino-1-cyclohexyl-3(R),4(S)-dihydroxy-6-methylheptane Diacetic Acid Salt] | 1000 pM |
| CC(C)C[C@H](NC(=O)[C@H](Cc1ccccc1)NC(=O)CCCC(=O)O)C(=O)N[C@@H](CC1CCCCC1)[C@@H](O)[C@@H](O)CC(C)C [Example 184, 4-Carboxybutyroyl-Phe-Leu Amide of 2(S)-Amino-l-cyclohexyl-3(R),4(S)-dihydroxy-6-methylheptane] | 590 pM |
| CCOC(=O)[C@H](C)N[C@@H](Cc1ccccc1)C(=O)N[C@@H](Cc1c[nH]cn1)C(=O)N[C@@H](CC1CCCCC1)[C@@H](O)[C@@H](O)CC(C)C [Example 185B, [l(S)-(Ethoxycarbonyl)-ethyl]-Phe-His Amide of 2(S)-Amino-1-cyclohexyl-3(R),4(S)-dihydroxy-6-methylheptane] | 510 pM |
| CC(C)C[C@H](O)[C@H](O)[C@H](CC1CCCCC1)NC(=O)[C@H](Cc1c[nH]cn1)NC(=O)[C@H](Cc1ccccc1)NC(=O)COCC(=O)O [Example 186, Carboxymethoxymethylcarbonyl-Phe-His Amide of 2(S)-Amino-1-cyclohexyl-3(R),4(S)-dihydroxy-6-methylheptane] | 2000 pM |

Same assay, conditions: human renal renin free from acid proteolytic activity, renin substrate human angiotensinogen, 37° C., pH 6.0

| SMILES | IC50 |
| --- | --- |
| CC(C)C[C@H](O)[C@H](O)[C@H](CC1CCCCC1)NC(=O)[C@H](Cc1c[nH]cn1)NC(=O)[C@H](Cc1ccccc1)NC(=O)N1CCNCC1 [Example 124, [(1-Piperazinyl)carbonyl]-Phe-His Amide of 2(S)-Amino-1-cyclohexyl-3(R),4(S)-dihydroxy-6-methylheptane Bis-Acetic Acid Salt] | 650 pM |
